According to patent US10385024B2, “Compounds and methods for inhibiting NHE-mediated antiport in the treatment of disorders associated with fluid retention or salt overload and gastrointestinal tract disorders” (Ardelyx, Inc., priority 2012, dated 2019):

Legend:
human NHE-3 = molecular target: T1, human NHE-3 (Homo sapiens, UniProt P48764); experiment: Cell-based assay of NHE-3 activity (human NHE3 inhibition assay); details: OK cells with human NHE-3 gene, BCECF pH dye, 0-30 μM test compound; for IC50: read-out: Human NHE3 pIC50 (converted)
T1 construct: expressed in transfected cells; host or cells: Opossum kidney (OK) cells (ATCC), transfected by electroporation
T1 sequence (P48764 26-834): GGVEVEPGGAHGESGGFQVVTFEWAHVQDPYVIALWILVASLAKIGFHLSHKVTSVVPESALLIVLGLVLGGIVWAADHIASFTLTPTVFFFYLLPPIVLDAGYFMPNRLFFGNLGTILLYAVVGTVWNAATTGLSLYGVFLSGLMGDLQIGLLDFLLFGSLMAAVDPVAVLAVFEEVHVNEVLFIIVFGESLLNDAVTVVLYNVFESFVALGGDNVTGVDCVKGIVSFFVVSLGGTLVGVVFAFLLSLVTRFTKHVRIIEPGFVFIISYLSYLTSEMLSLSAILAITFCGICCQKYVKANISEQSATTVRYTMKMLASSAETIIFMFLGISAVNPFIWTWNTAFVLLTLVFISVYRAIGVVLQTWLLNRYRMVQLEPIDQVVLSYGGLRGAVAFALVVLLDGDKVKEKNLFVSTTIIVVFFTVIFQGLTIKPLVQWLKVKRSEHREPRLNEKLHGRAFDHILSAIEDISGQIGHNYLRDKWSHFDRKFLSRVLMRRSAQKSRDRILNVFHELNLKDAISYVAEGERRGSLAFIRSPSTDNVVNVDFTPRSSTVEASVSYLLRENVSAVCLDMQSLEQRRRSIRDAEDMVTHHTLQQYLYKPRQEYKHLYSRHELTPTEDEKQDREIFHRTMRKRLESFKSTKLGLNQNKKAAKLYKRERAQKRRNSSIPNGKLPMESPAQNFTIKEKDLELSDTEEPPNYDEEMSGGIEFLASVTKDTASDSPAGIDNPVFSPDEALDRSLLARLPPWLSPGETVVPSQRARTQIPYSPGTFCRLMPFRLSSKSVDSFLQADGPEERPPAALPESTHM
Procedure, shortened: (§1)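 Opossum kidney cells electroporated with rat or human NHE-3, loaded with 5 μM BCECF-AM in NH4Cl-HEPES pH 7.4 for 30 min at RT, then acidified 10 min in Na+-free choline HEPES. Na+-dependent pH recovery rates from BCECF fluorescence, averaged over ≥2 replicates, gave pIC50.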

Rat NHE-3 [1] = molecular target: T2, Rat NHE-3 (Rattus norvegicus, UniProt P26433); experiment: Cell-based assay of NHE-3 activity (rat NHE-3 prompt inhibition); details: OK cells with rat NHE-3 gene, compound present during pH recovery; for IC50: read-out: Rat NHE3 pIC50 (prompt) (converted)
T2 construct: expressed in transfected cells; host or cells: Opossum kidney (OK) cells (ATCC), transfected by electroporation
T2 sequence (P26433 29-831): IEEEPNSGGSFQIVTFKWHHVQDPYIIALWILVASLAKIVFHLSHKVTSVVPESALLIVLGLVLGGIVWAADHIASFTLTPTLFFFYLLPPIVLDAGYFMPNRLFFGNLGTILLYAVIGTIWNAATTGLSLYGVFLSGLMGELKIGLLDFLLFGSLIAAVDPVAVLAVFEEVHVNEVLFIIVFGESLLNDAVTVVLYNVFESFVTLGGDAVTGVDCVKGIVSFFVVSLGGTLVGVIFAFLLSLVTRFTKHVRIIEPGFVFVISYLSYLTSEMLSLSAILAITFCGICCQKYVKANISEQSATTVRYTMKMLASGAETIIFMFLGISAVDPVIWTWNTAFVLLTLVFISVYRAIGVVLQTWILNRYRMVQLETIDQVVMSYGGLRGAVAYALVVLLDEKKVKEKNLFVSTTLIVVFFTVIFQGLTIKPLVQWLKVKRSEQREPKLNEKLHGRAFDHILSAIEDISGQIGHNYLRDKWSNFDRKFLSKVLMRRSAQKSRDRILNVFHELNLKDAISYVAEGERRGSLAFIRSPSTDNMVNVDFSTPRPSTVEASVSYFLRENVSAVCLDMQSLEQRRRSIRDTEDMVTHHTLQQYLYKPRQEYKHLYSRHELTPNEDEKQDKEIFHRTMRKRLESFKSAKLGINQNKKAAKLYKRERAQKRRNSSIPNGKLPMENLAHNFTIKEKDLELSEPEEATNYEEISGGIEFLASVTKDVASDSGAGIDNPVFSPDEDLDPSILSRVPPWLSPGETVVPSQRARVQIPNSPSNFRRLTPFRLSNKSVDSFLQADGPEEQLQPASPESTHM
Procedure, shortened: as §1

[2] = tested on: absorption of sodium from the intestinal lumen; experiment: Inhibition of intestinal sodium absorption (urinary sodium and fecal form); assay type: in vivo, Sprague-Dawley rats; details: rat; for response vs control in vivo at 3 mg/kg: 3 mg/kg oral gavage, urine 16 h post-dose, asterisks = significance vs vehicle (*P<0.05, **P<0.01, ***P<0.001), read-out: uNa (% of vehicle); for FFS: fecal form score, scale 1 (normal pellet) to 5 (liquid fecal streams), group average, 3 mg/kg oral, 16 h post-dose, vehicle = 1
Procedure: Urinary sodium concentration and fecal form were measured to assess the ability of selected example compounds to inhibit the absorption of sodium from the intestinal lumen. Eight-week old Sprague-Dawley rats were purchased from Charles River Laboratories (Hollister, Calif.), were housed 2 per cage, and acclimated for at least 3 days before study initiation. Animals were fed Harlan Teklad Global 2018 rodent chow (Indianapolis, Ind.) and water ad libitum throughout the study and maintained in a standard light/dark cycle of 6 AM to 6 PM. On the day of the study, between 4 PM and 5 PM, a group of rats (n=6) were dosed via oral gavage with test compound at the dosage indicated or vehicle (water) at a volume of 10 mL/kg. After dose administration animals were placed in individual metabolic cages where they were also fed the same chow in meal form and watered ad libitum. At 16 h post-dose, the urine samples were collected and fecal form was assessed by two independent observations. Fecal forms were scored according to a common scale associated with increasing fecal water to the wettest observation in the cage's collection funnel (1, normal pellet; 2, pellet adhering to sides of collection funnel due to moisture; 3, loss of normal pellet shape; 4, complete loss of shape with a blotting pattern; 5, liquid fecal streams evident). A rat's fecal form score (FFS) was determined by averaging both observational scores for all rats within a group (n=6). In every study the vehicle group average was 1. For urine samples, the volumes were determined gravimetrically and centrifuged at 3,600×g. The supernatants were diluted 100-fold in deionized Milli-Q water then filtered through a 0.2 μm GHP Pall AcroPrep filter plate (Pall Life Sciences, Ann Arbor, Mich.) prior to analysis by ion chromatography. Ten microliters of each filtered extract was injected onto a Dionex ICS-3000 ion chromatograph system (Dionex, Sunnyvale, Calif.). Cations were separated by an isocratic method using 25 mM methanesulfonic acid as the eluent on an IonPac CS12A 2 mm i.d.×250 mm, 8 μm particle size cation exchange column (Dionex). Sodium was quantified using standards prepared from a cation standard mix containing Li^+, Na^+, NH4^+, K^+, Mg^2+, and Ca^2+ (Dionex). The mean mass of sodium urinated for every group in the 16 h period was determined with the vehicle group usually urinating approximately 21 mg sodium. The urine Na (uNa) for rats in the test groups were expressed as a percentage of the vehicle mean and the means were compared to that of the vehicle group by utilizing a one-way analysis of variance coupled with a Dunnett's post hoc test.

Rat NHE-3 [3] = molecular target: T2, Rat NHE-3; experiment: Cell-based assay of NHE-3 activity (persistent inhibition, after washout); details: OK cells with rat NHE-3 gene, 60 min incubation, recovery initiated 40 min after compound washout; for IC50: read-out: Rat NHE3 pIC50 (persistent) (converted)
Procedure, shortened: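 OK cells transiently expressing rat NHE-3 were exposed to 0-30 μM compound in NaCl-HEPES pH 7.4 for 60 min, then washed free of drug before NH4Cl/BCECF-AM loading and acid-loading in Na+-free choline buffer. Na+-dependent pH recovery rates (mean of ≥2 replicates) gave pIC50.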

Row | SMILES | IC50 (human NHE-3) [nM] | IC50 (Rat NHE-3 [1]) [nM] | IC50 (Rat NHE-3 [3]) [nM] | Human NHE3 pIC50 (human NHE-3) | Rat NHE3 pIC50 (prompt) (Rat NHE-3 [1]) | Rat NHE3 pIC50 (persistent) (Rat NHE-3 [3]) | response vs control in vivo at 3 mg/kg [2] [%] | FFS [2]
1 | CN1Cc2c(Cl)cc(Cl)cc2[C@H](c2cccc(S(=O)(=O)NCCOCCOCCOCCNC(=O)CCC(N)(CCC(=O)NCCOCCOCCOCCNS(=O)(=O)c3cccc([C@@H]4CN(C)Cc5c(Cl)cc(Cl)cc54)c3)CCC(=O)NCCOCCOCCOCCNS(=O)(=O)c3cccc([C@@H]4CN(C)Cc5c(Cl)cc(Cl)cc54)c3)c2)C1 [Example 9, 4-amino-4-(1-(3-((S)-6,8-dichloro-2-methyl-1,2,3,4-tetrahydroisoquinolin-4-yl)phenylsulfonamido)-13-oxo-3,6,9-trioxa-12-azapentadecan-15-yl)-N^1,N^7-bis(2-(2-(2-(2-(3-((S)-6,8-dichloro-2-methyl-1,2,3,4-tetrahydroisoquinolin-4-yl)phenylsulfonamido)ethoxy)ethoxy)ethoxy)ethyl)heptanediamide] | < 100 | < 100 | < 100 | – | – | – | < 35 | –
2 | CCC(=O)NC(CCC(=O)NCCOCCOCCOCCNS(=O)(=O)c1cccc([C@@H]2CN(C)Cc3c(Cl)cc(Cl)cc32)c1)(CCC(=O)NCCOCCOCCOCCNS(=O)(=O)c1cccc([C@@H]2CN(C)Cc3c(Cl)cc(Cl)cc32)c1)CCC(=O)NCCOCCOCCOCCNS(=O)(=O)c1cccc([C@@H]2CN(C)Cc3c(Cl)cc(Cl)cc32)c1 [Example 10, 4-(1-(3-((S)-6,8-dichloro-2-methyl-1,2,3,4-tetrahydroisoquinolin-4-yl)phenylsulfonamido)-13-oxo-3,6,9-trioxa-12-azapentadecan-15-yl)-N1,N7-bis(2-(2-(2-(2-(3-((S)-6,8-dichloro-2-methyl-1,2,3,4-tetrahydroisoquinolin-4-yl)phenylsulfonamido)ethoxy)ethoxy)ethoxy)ethyl)-4-propionamidoheptanediamide] | < 100 | < 100 | < 100 | – | – | – | 35 to 75 | 2
3 | CN1Cc2c(Cl)cc(Cl)cc2[C@H](c2cccc(S(=O)(=O)NCCOCCOCCNC(=O)CCC(CCC(=O)NCCOCCOCCNS(=O)(=O)c3cccc([C@@H]4CN(C)Cc5c(Cl)cc(Cl)cc54)c3)(CCC(=O)NCCOCCOCCNS(=O)(=O)c3cccc([C@@H]4CN(C)Cc5c(Cl)cc(Cl)cc54)c3)NC(=O)N(C)C)c2)C1 [Example 25] | – | – | – | B (B NHE3 pIC50 5-7) | B (B NHE3 pIC50 5-7) | C (C NHE3 pIC50 > 7) | < 35 | –
4 | CN1Cc2c(Cl)cc(Cl)cc2C(c2cccc(S(=O)(=O)NCCOCCOCCNC(=O)CCC(CCC(=O)NCCOCCOCCNS(=O)(=O)c3cccc(C4CN(C)Cc5c(Cl)cc(Cl)cc54)c3)(CCC(=O)NCCOCCOCCNS(=O)(=O)c3cccc(C4CN(C)Cc5c(Cl)cc(Cl)cc54)c3)NC(=O)C3CCCCC3C(=O)O)c2)C1 (stereo not shown) [Example 28] | – | – | – | C (C NHE3 pIC50 > 7) | B (B NHE3 pIC50 5-7) | C (C NHE3 pIC50 > 7) | 35 to 75 | –

More lines, main results first:

Row | IC50 (human NHE-3) [nM] | IC50 (Rat NHE-3 [1]) [nM] | IC50 (Rat NHE-3 [3]) [nM] | Human NHE3 pIC50 (human NHE-3) | Rat NHE3 pIC50 (prompt) (Rat NHE-3 [1]) | Rat NHE3 pIC50 (persistent) (Rat NHE-3 [3]) | SMILES | response vs control in vivo at 3 mg/kg [2] [%] | FFS [2]
5 | < 100 | 100 to 10000 | < 100 | – | – | – | CN1Cc2c(Cl)cc(Cl)cc2[C@H](c2cccc(S(=O)(=O)NCCOCCOCCNC(=O)CCC(CCC(=O)NCCOCCOCCNS(=O)(=O)c3cccc([C@@H]4CN(C)Cc5c(Cl)cc(Cl)cc54)c3)(CCC(=O)NCCOCCOCCNS(=O)(=O)c3cccc([C@@H]4CN(C)Cc5c(Cl)cc(Cl)cc54)c3)NC(N)=O)c2)C1 [Example 8, N1,N7-bis(2-(2-(2-(3-((S)-6,8-dichloro-2-methyl-1,2,3,4-tetrahydroisoquinolin-4-yl)phenylsulfonamido)ethoxy)ethoxy)ethyl)-4-(3-(2-(2-(2-(3-((S)-6,8-dichloro-2-methyl-1,2,3,4-tetrahydroisoquinolin-4-yl)phenylsulfonamido)ethoxy)ethoxy)ethylamino)-3-oxopropyl)-4-ureidoheptanediamide] | < 35 | –
6 | < 100 | < 100 | < 100 | – | – | – | CN1Cc2c(Cl)cc(Cl)cc2[C@H](c2cccc(S(=O)(=O)NCCOCCOCCNC(=O)CCC(CCC(=O)NCCOCCOCCNS(=O)(=O)c3cccc([C@@H]4CN(C)Cc5c(Cl)cc(Cl)cc54)c3)(CCC(=O)NCCOCCOCCNS(=O)(=O)c3cccc([C@@H]4CN(C)Cc5c(Cl)cc(Cl)cc54)c3)NC(=O)N[C@@H](CC(=O)O)C(=O)O)c2)C1 [Example 12, (S)-2-(3-(1,25-bis(3-((S)-6,8-dichloro-2-methyl-1,2,3,4-tetrahydroisoquinolin-4-yl)phenylsulfonamido)-13-(3-(2-(2-(2-(3-((S)-6,8-dichloro-2-methyl-1,2,3,4-tetrahydroisoquinolin-4-yl)phenylsulfonamido)ethoxy)ethoxy)ethylamino)-3-oxopropyl)-10,16-dioxo-3,6,20,23-tetraoxa-9,17-diazapentacosan-13-yl)ureido)succinic acid] | 35 to 75 | 3
7 | – | – | – | C (C NHE3 pIC50 > 7) | B (B NHE3 pIC50 5-7) | C (C NHE3 pIC50 > 7) | CNC(=O)NC(CCC(=O)NCCOCCOCCNS(=O)(=O)c1cccc([C@@H]2CN(C)Cc3c(Cl)cc(Cl)cc32)c1)(CCC(=O)NCCOCCOCCNS(=O)(=O)c1cccc([C@@H]2CN(C)Cc3c(Cl)cc(Cl)cc32)c1)CCC(=O)NCCOCCOCCNS(=O)(=O)c1cccc([C@@H]2CN(C)Cc3c(Cl)cc(Cl)cc32)c1 [Example 26] | < 35 | –
8 | – | – | – | C (C NHE3 pIC50 > 7) | C (C NHE3 pIC50 > 7) | C (C NHE3 pIC50 > 7) | CN(CC(=O)O)CC(=O)NC(CCC(=O)NCCOCCOCCNS(=O)(=O)c1cccc([C@@H]2CN(C)Cc3c(Cl)cc(Cl)cc32)c1)(CCC(=O)NCCOCCOCCNS(=O)(=O)c1cccc([C@@H]2CN(C)Cc3c(Cl)cc(Cl)cc32)c1)CCC(=O)NCCOCCOCCNS(=O)(=O)c1cccc([C@@H]2CN(C)Cc3c(Cl)cc(Cl)cc32)c1 [Example 27] | 35 to 75 | –
